From patent US9426990B2, “Herbicidal agents containing aclonifen” (BAYER CROPSCIENCE AG, priority 2012, dated 2016) come the findings set out here.

For experiment [1], the system named is Lolium spp. resistant to HRAC group A. The experiment is described as follows: greenhouse experiment, post-emergence treatment of resistant ryegrass biotypes (HRAC group A resistant). In kind it is in vivo. Conditions: post-emergence (PO, BBCH 11), about 3 weeks after application, dose g of AS/ha: aclonifen 225, pendimethalin 300, picolinafen 25, mixture 225 + 300 + 25, pinoxaden + cloquintocet-mexyl 60 + 15. Here is the method:
(§1) In the standard design of the test, seeds of various broad-leaved weed and weed grass biotypes (origins) were sown in a 8-13 cm diameter pot filled with natural soil of a standard field soil (loamy silt; non-sterile) and covered with a covering soil layer of about 1 cm. The pots were then cultivated in a greenhouse (12-16 h light, temperature day 20-22° C., night 15-18° C.) until the time of application. The pots were treated on a laboratory track sprayer with spray liquors comprising the compositions according to the invention, mixtures of the prior art or components used individually. Application of the active compounds or active compound combinations formulated as WG, WP, EC or otherwise was carried out at the appropriate growth stages of the plants. The amount of water used for spray application was 100-600 l/ha. After the treatment, the plants were returned to the greenhouses.
(§2) About 3 weeks after the application, the soil action or/and foliar action was assessed visually according to a scale of 0-100% in comparison to an untreated comparative group: 0%=no noticeable effect compared to the untreated comparative group; 100%=full effect compared to the untreated comparative group.
(§3) 2. Post-emergence action against weeds: seeds of various broad-leaved weed and weed grass biotypes (origins) were sown in a 8-13 cm diameter pot filled with natural soil of a standard field soil (loamy silt; non-sterile) and covered with a covering soil layer of about 1 cm. The pots were then cultivated in a greenhouse (12-16 h of light, temperature day 20-22° C., night 15-18° C.) until the time of application. […]
(§4) Insofar as herbicidal effects of the compositions according to the invention compared to mixtures of the prior art or compared to components applied individually against economically important mono- and dicotyledonous harmful plants were the center of attention, the synergistic herbicidal activities were calculated using Colby's formula (cf. S. R. Colby; Weeds 15 (1967), 20-22): E^C=(A+B+C)−(A×B+A×C+B×C)/100+(A×B×C)/10000 where: […]

The subject of experiment [2] is Lolium spp. resistant to HRAC group B. The experiment is described as follows: greenhouse experiment, post-emergence treatment of resistant ryegrass biotypes (HRAC group B resistant). In kind it is in vivo. The following applies: post-emergence (PO, BBCH 11), about 3 weeks after application, dose g of AS/ha: aclonifen 225, pendimethalin 300, picolinafen 25, mixture 225 + 300 + 25, mesosulfuron + iodosulfuron + mefenpyr 15 + 3 + 45. As for the experimental part:
as §1, §2, §3, §4

With `O=C(Nc1ccc(F)cc1)c1cccc(Oc2cccc(C(F)(F)F)c2)n1` [(C) picolinafen, N-(4-fluorophenyl)-6-[3-(trifluoromethyl)phenoxy]-2-pyridinecarboxamide], the “herbicidal effect, visual assessment on a scale of 0-100% versus untreated comparative group” value turned out to be 10% in experiment [1] and 5% in experiment [2].

As to `CCC(CC)Nc1c([N+](=O)[O-])cc(C)c(C)c1[N+](=O)[O-]` [(B) pendimethalin, N-(1-ethylpropyl)-3,4-dimethyl-2,6-dinitrobenzenamine], the “herbicidal effect, visual assessment on a scale of 0-100% versus untreated comparative group” value worked out at 5% in experiment [1] and 0% in experiment [2].

Turning to `Nc1c([N+](=O)[O-])ccc(Oc2ccccc2)c1Cl` [(A) aclonifen, 2-chloro-6-nitro-3-phenoxybenzenamine], the “herbicidal effect, visual assessment on a scale of 0-100% versus untreated comparative group” value came to 25% in experiment [1] and 50% in experiment [2].
